Reference: US9388166B2, “6-aminoindole derivatives as TRP channel antagonists” (Hoffmann-La Roche Inc., priority 2012, dated 2016)

Molecular target: T1, hTRPA1 (Homo sapiens, UniProt O75762)
T1 construct: host or cells: CHO-K1 Tet-On, clone 20, expression induced with tetracycline/doxycycline
Assay: Dose response calcium flux (FLIPR) assay, ChanTest hTRPA1-CHO stably transfected cell line, cinnamaldehyde agonist
Format: cell-based
Conditions: CHO-K1 Tet-On hTRPA1 Clone 20 cells, 30 min compound preincubation, cinnamaldehyde final 100 uM
Protocol: Dose Response Assay: ChanTest hTRPA1-CHO Stably Transfected Cell Line
To induce expression, tetracycline was added to blasticidin/zeocin-free media at a final concentration of 1 ug/ml. Experiments were run at 24 h post induction.
Measured cell density and diluted to 2.4×10^5 cells/ml in media containing 1 ug/ml Doxycycline Plate 25 ul/well into 384 well black/clear tissue culture-treated plates.
Replacement Buffer: Hank's Balanced Salt Solution, 20 mM HEPES along with 0.005% BSA and 2× Probenecid
Dye Loading Buffer: Cal-3 NW Calcium dye was prepared by dissolving the contents of one vial with 500 ml Hank's Balanced Salt Solution containing 20 mM HEPES. • Control compounds for CHOK1/TRPA1 cells:
AP-18, stock 10 mM, prepare 3.5× compound dilution in a Compound Buffer (HBSS/20mM HEPES/0.005% BSA)—final concentration 10 uM.
Preparation of Cinnamaldehyde (agonist addition): • FW=132.16 • Specific gravity=1.046 gm/cc • 1.32 gm/1.046 gm/cc=1.26 ml of stock • Add 1.74 ml DMSO=3.3 M stock • Working solution 4.5× (final 100 uM in Compound Buffer: HBSS/20 mM HEPES/0.005% BSA)
Compounds dilutions were prepared from 5 or 10 mM stock (100% DMSO):
Compounds were tested at either 20 μM three folds dilution 11 steps out or 30 μM two folds dilution 11 steps out.
3 μl of diluted compound were transferred into Weidmann 384—well plate in duplicates side-by-side.
Compound plates were resuspended with 100 ul of HBSS/20 mM HEPES/0.005% BSA buffer (Compound Buffer): • column 1A-H: buffer/DMSO (bk) • column 2A-H: AP-18(control antagonist for CHOK1 TRPA1 cells) • column 1I-P: ATP (control for CHOK1 teton cells) • column 2 I-P: 2APB (control antagonist for CHOK1/TRPM8 cells).
Growth media was removed from the cell plates (20 ul) and 20 ul of the Replacement Buffer was added followed by addition of 25 ul of diluted dye. All three steps were performed using a Plate Washer BioTek 407. The plates were then incubated for 30′ at RT.
After incubation, both the cell and compound plates were brought to the FLIPR and 20 ul of the diluted compounds/antagonist/bk were transferred to the cell plates by the FLIPR. Plates were then incubated for 30′ at room temperature. After 30′ incubation, plates were returned to the FLIPR and 20 ul of 4.5× Cinnamaldehyde was added to the cell plates. During the compound addition as well as agonist addition, fluorescence readings were taken simultaneously from all 384 wells of the cell plate every 1.5 seconds. Five readings were taken to establish a stable baseline, then 20 μl of sample was rapidly (30 ul/sec) and simultaneously added to each well of the cell plate. The fluorescence was continuously monitored before, during and after sample/agonist addition for a total elapsed time of 100 seconds (compound addition) and 120 seconds (agonist addition). Responses (increase in peak fluorescence) in each well following agonist addition was determined. The initial fluorescence reading from each well, prior to ligand stimulation, was used a zero baseline value for the data from that well.

T1 sequence (O75762 whole entry): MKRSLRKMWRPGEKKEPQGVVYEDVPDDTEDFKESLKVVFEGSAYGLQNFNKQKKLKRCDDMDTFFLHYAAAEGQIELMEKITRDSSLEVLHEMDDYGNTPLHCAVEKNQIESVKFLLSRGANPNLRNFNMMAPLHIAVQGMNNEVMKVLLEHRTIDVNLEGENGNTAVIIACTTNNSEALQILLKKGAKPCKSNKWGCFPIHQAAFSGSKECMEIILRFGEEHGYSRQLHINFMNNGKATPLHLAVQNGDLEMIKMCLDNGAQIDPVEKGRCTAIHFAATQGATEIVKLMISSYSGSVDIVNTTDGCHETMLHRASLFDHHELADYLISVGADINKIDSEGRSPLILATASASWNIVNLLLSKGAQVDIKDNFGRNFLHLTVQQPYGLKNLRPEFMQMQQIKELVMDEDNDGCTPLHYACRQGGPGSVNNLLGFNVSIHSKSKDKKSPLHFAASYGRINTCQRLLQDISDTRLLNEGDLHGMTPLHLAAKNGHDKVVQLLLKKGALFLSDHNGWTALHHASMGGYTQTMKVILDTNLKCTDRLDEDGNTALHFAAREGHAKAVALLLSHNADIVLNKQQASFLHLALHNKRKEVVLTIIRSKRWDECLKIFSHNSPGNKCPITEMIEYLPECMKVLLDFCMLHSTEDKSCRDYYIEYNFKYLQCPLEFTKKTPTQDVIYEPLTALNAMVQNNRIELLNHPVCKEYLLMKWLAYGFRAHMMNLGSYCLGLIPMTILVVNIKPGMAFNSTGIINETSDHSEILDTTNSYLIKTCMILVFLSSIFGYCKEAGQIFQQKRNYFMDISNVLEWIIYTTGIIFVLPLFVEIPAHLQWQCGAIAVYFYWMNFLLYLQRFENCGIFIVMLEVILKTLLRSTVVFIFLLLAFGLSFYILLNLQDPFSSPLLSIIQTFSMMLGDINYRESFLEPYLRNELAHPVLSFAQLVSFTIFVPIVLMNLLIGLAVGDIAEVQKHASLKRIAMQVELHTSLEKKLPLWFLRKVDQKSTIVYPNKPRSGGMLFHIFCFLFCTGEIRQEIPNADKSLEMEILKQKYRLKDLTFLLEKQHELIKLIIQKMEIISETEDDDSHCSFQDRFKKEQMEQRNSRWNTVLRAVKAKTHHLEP

Compound | IC50
COc1nccc(I)c1-c1cc2ccc(N(C)C(=O)C(F)F)cc2[nH]1 [Example 6, 2,2-Difluoro-N-[2-(4-iodo-2-methoxy-pyridin-3-yl)-1H-indol-6-yl]-N-methyl-acetamide] | 3.3 µM
COc1cc2cc(-c3c(I)ccnc3OC)[nH]c2cc1N [Example 8, 2-(4-Iodo-2-methoxy-pyridin-3-yl)-5-methoxy-1H-indol-6-ylamine] | 0.74 µM
COc1cccc(Cl)c1-c1cc2ccc(N)cc2[nH]1 [Example 9, 2-(2-Chloro-6-methoxy-phenyl)-1H-indol-6-ylamine] | 4.3 µM
COc1cccc(Cl)c1-c1cc2ccc(NC(=O)C(F)(F)F)cc2[nH]1 [Example 10, N-[2-(2-Chloro-6-methoxy-phenyl)-1H-indol-6-yl]-2,2,2-trifluoro-acetamide] | 0.75 µM
COc1nccc(Cl)c1-c1cc2ccc(NC(=O)[C@@H]3CCCCN3S(=O)(=O)c3ccc(F)cc3)cc2[nH]1 [Example 13, (S)-1-(4-Fluoro-benzenesulfonyl)-piperidine-2-carboxylic acid[2-(4-chloro-2-methoxy-pyridin-3-yl)-1H-indol-6-yl]amide] | 3.5 µM

Results, then the compound that gave them:

IC50 | Compound
4 µM | COc1nccc(I)c1-c1cc2ccc(NC(=O)OC(C)(C)C)cc2[nH]1 [Example 1, [2-(4-Iodo-2-methoxy-pyridin-3-yl)-1H-indol-6-yl]-carbamic acid tert-butyl ester]
0.71 µM | COc1nccc(I)c1-c1cc2ccc(NC(=O)C(F)(F)F)cc2[nH]1 [Example 2, 2,2,2-Trifluoro-N-[2-(4-iodo-2-methoxy-pyridin-3-yl)-1H-indol-6-yl]-acetamide]
4.2 µM | COc1nccc(I)c1-c1cc2ccc(NC(=O)C(F)F)cc2[nH]1 [Example 3, 2,2-Difluoro-N-[2-(4-iodo-2-methoxy-pyridin-3-yl)-1H-indol-6-yl]-acetamide]
0.46 µM | COc1nccc(Cl)c1-c1cc2ccc(NC(=O)C(F)(F)F)cc2[nH]1 [Example 4, N-[2-(4-Chloro-2-methoxy-pyridin-3-yl)-1H-indol-6-yl]-2,2,2-trifluoro-acetamide]
5.5 µM | CNc1ccc2cc(-c3c(I)ccnc3OC)[nH]c2c1 [Example 5, [2-(4-Iodo-2-methoxy-pyridin-3-yl)-1H-indol-6-yl]-methyl-amine]
3.6 µM | COc1nccc(I)c1-c1cc2ccc(N(C)C(C)=O)cc2[nH]1 [Example 7, N-[2-(4-Iodo-2-methoxy-pyridin-3-yl)-1H-indol-6-yl]-N-methyl-acetamide]
2.9 µM | COc1nccc(I)c1-c1cc2ccc(NC(=O)c3cccc(Cl)c3)cc2[nH]1 [Example 11, 3-Chloro-N-[2-(4-iodo-2-methoxy-pyridin-3-yl)-1H-indol-6-yl]-benzamide]
5.6 µM | COc1nccc(Cl)c1-c1cc2ccc(NC(=O)c3cccc(Cl)c3)cc2[nH]1 [Example 12, 3-Chloro-N-[2-(4-chloro-2-methoxy-pyridin-3-yl)-1H-indol-6-yl]-benzamide]
